Experimental data as given in article PMC9029994 (RSC Advances, 2021).

Target: Sperm whale WT Mb (myoglobin, Mb) (Physeter macrocephalus, UniProt P02185, F44H/H65A)
Test: biochemical

Sequence of Sperm whale WT Mb (myoglobin, Mb) (P02185 2-154 F44H/H65A): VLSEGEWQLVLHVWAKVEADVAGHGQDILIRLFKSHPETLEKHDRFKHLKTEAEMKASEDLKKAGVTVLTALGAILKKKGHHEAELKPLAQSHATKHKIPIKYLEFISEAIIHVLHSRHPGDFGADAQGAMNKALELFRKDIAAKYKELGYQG

CN(C)c1ccc(C(=C2C=CC(=[N+](C)C)C=C2)c2ccccc2)cc1 [MG, malachite green]
Kd: 474 µM
